From US11805798B2, “Process for increasing the stability of a composition comprising polyunsaturated omega-3 fatty acids” (Evonik Operations GmbH, priority 2014, dated 2023)
Several values for one entry are separate records, joined by “and”; a condition that tells them apart may be missing. Identical values can stand only once.

Tests used:
Format in all cases: physicochemical
[1] = Anisidine Value (AV), secondary oxidation products, Ph. Eur. 2.5.36; stability on storage
Protocol: An exemplary procedure for determining the Anisidine Value (AV) of a sample is performed as follows
The anisidine value is defined as 100 times the optical density measured in a 1 cm cell of a solution containing 1 g of the substance to be examined in 100 ml of a mixture of solvents and reagents according to the following method carry out the operations as rapidly as possible avoiding exposure to actinic light.
Test solution (a); Dissolve 0.500 g of the substance to be examined in trimethylpentane and dilute to 25.0 ml with the same solvent.
Test solution (b): To 5.0 ml of test solution (a) add 1.0 ml of a 2.5 g/t solution of p-anisidine in glacial acetic acid, shake and store protected from light.
Reference solution: To 5.0 ml of trimethylpentane add 1.0 ml of a 2.5 g/l solution of p-anisidine in glacial acetic acid, shake and store protected from light. Measure the absorbance of test solution (a) at the maximum at 350 nm using trimethylpentane as the compensation liquid. Measure the absorbance of test solution (b) at 350 nm exactly 10 min after its preparation, using the reference solution as the compensation liquid. Calculate the anisidine value (AV) from the expression. AV=(25*(1.2*A1−A2)/m • A1=absorbance of test solution (b) at 350 nm, • A2=absorbance of test solution (a) at 350 nm, • m=mass of the substance to be examined in test solution (a), in grams.
(§1) Primary oxidation products (hydroperoxides at double bonds) were quantified by determining the Peroxide Value (PV) according to Ph. Eur 2.5.5 (01/2008.20505). Secondary oxidation products (carbonyl compounds) were quantified by determining the Anisidine Value (AV) according to Ph, Eur. 2.5.36 (01/2008:20536).
(§2) About 50 g each of the liquid ethyl esters EPA-OEt and DHA-OEt used in experiments 1 and 2 as well as of the liquid fatty acids EPA and DHA obtained in experiments 1 and 2 were filled into 250 ml Schott Duran bottles with an inner diameter of about 60 mm (filling height about 20 mm). About 50 g each of the solid lysine-salts EPA-Lys and DHA-Lys obtained in experiments 3 and 4 were filled into 250 ml polyethylene wide-neck bottles (55 mm*55 mm*80 mm) (filling height about 60 mm-70 mm).
(§3) All of the bottles were placed together with opened lids in a drying oven with an opened ventilation valve at 50° C. and stored under these conditions for 26 days. Results of the analyses performed subsequently as well as the results obtained for the sodium-salts which were stored at room temperature (cf. experiments 5 and 6) are summarized in the following table (Table 1).

[2] = Peroxide Value (PV), primary oxidation products, Ph. Eur. 2.5.5; stability on storage
Protocol: An exemplary procedure for determining the Peroxide Value (PV) of a sample is performed as follows:
Reagents and solution: • 1. Acetic Acid—chloroform solution (7.2 ml Acetic Acid and 4.8 ml Chloroform). • 2. Saturated Potassium Iodide solution. Store in the dark. • 3. Sodium thiosulfate solution, 0.1N. Commercially available • 4. 1% Starch solution. Commercially available. • 5. Distilled or deionized water.
Conduct a blank determination of the reagents • 1. Weigh 2.00 (±0.02) g of sample into a 100 ml glass stoppered Erlenmeyer flask. Record weight to the nearest 0.01 g. • 2. By graduated cylinder, odd 12 ml of the acetic acid chloroform solution. • 3. Swirl the flask until the sample is completely dissolved (careful warming on a hot plate may be necessary). • 4. Using 1 ml Mohr pipette, add 0.2 ml of saturated potassium iodide solution • 5. Stopper the flask and swirl the contents of the flask for exactly one minute. • 6. Immediately add by graduated cylinder, 12 ml of either distilled or deionized water, stopper and stake vigorously to liberate the iodine from the chloroform layer. • 7. Fill the burette with 0.1 N sodium thiosulfate. • 8. If the starting color of the solution is deep red orange, titrate slowly with mixing until the color lightens. If the solution is initially a light amber color, go to step 9. • 9. Using a dispensing device: add 1 ml of starch solution as indicator. • 10. Titrate until the blue gray color disappears in the aqueous (upper layer). • 11. Accurately record the mis of titrant used to two decimal places.
Calculation: • S=titration of sample • B=titration of blank • Peroxide value=(S−B)*N thiosulfate*1000/weight of sample
as §1, §2, §3

[3] = Oligomer content by gel-chromatography (GPC), RI-detector; stability on storage
Protocol: Oligomeric PUFA constituents as well as their derivatives (collectively referred to as oligomer content) were quantified by gel-chromatographic means (GPC, styroldivinylbenzene-phase with tetrahydrofuran containing trifluoroacetic acid used as eluent). A refractive index (RI) detector was used for detection. Due to the fact that specific response factors of the constituents of the samples wore unknown, proportions were calculated based upon fractional proportions of the total area of chromatograms.
as §2, §3

[4] = Appearance after storage at room temperature; conditions: after storage for 3 months at room temperature; initially faintly beige powder
Protocol: The homogenous solution obtained was spray dried with a Büchi B190 laboratory-spray drier with an inlet temperature of 140° C. and an outlet temperature of about 80° C. 28.6 g of a faintly beige powder were obtained.
The homogenous solution obtained was spray dried with a Büchi B190 laboratory-spray drier writ an inlet temperature of 140° C. and an outlet temperature of about 80° C. 27.5 g of a faintly beige powder were obtained. […] Oligomer content was determined as 3.4 area-% (gel-chromatography. RI-detector).

[5] = t = 26 days, open bottles exposed to air, drying oven at 50° C.
[6] = after 3 months at room temperature

Row | Oligomer content ([3]; t = 0, before storage) [area-%] | Compound | Anisidine Value (AV) ([1]; t = 0, before storage) [A/g] | Anisidine Value (AV) [1, 5] [A/g] | Peroxide Value (PV) ([2]; t = 0, before storage) [mmol/kg] | Peroxide Value (PV) [2, 5] [mmol/kg] | Oligomer content [3, 5] [area-%] | Anisidine Value (AV) [1, 6] | Peroxide Value (PV) [2, 6] | Oligomer content [3, 6] | Appearance after storage [4]
1 |  | Docosahexaenoic Acid-L-Lysine Salt [DHA-Lys] | 3.1 | <1.0 | 1.7 | <1.0 | 0.9 |  |  |  | 
2 | 0.4 | CC/C=C\C/C=C\C/C=C\C/C=C\C/C=C\C/C=C\CCC(=O)OCC [DHA-OEt, docosahexaenoic acid ethyl ester] | 16.0 | 1732 | 26.1 | 282.0 | 32.6 |  |  |  | 
3 |  | CC/C=C\C/C=C\C/C=C\C/C=C\C/C=C\CCCC(=O)O [EPA-OH, all-cis-5,8,11,14,17-eicosapentaenoic acid] | 3.1 | 424 | 8.6 | 14.7 | 20.6 |  |  |  | 
4 |  | Eicosapentaenoic Acid-Sodium Salt [EPA-Na] |  |  |  |  |  | 41.1 A/g and 41.1 ** A/g | 5.0 mmol/kg and 5.0 ** mmol/kg | 2.4 area-% and 2.4 ** area-% | grey-coloured appearance
5 |  | Eicosapentaenoic Acid-L-Lysine [EPA-Lys] | 2.1 | <1.0 | 1.3 | <1.0 | 0.6 |  |  |  | 
6 |  | Docosahexaenoic Acid-Sodium Salt [DHA-Na] |  |  |  |  |  | 77.9 A/g and 77.9 ** A/g | 6.9 mmol/kg and 6.9 ** mmol/kg | 3.4 area-% and 3.4 ** area-% | grey-coloured appearance
